The values that follow come from PubChem BioAssay AID180 (DTP/NCI, 2004).

The structures appear in SMILES notation.

In this experiment the test system is BDF1 mice, Adenocarcinoma 755 s.c., tumor weight T/C. In words: NCI In Vivo Anticancer Drug Screen. Data for tumor model Adenocarcinoma 755 (subcutaneous) in B6D2F1 (BDF1) mice. The note with it: endpoint: mean tumor weight, schedule: Q01DX011 (ip), higher = larger tumour. The gist of the method:
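Compound activity was tested in mice carrying transplanted tumors. Survival or tumor size was measured, and each value is the treated-group measurement divided by that of the vehicle-treated control group (T/C).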

Consider `CCOC1=C(N2CC2)C(=O)C(OCC)=C(N2CC2)C1=O`, for which the T/C (usually the ratio of treated to control) is 36 % of control (dose: 0.08 mg/kg/injection, vehicle: carboxymethylcellulose (CMC)); 94 % of control (dose: 0.12 mg/kg/injection, vehicle: carboxymethylcellulose (CMC)); 46 % of control (dose: 0.16 mg/kg/injection, vehicle: carboxymethylcellulose (CMC)); 55 % of control (dose: 0.25 mg/kg/injection, vehicle: carboxymethylcellulose (CMC)); 48 % of control (dose: 0.32 mg/kg/injection, vehicle: carboxymethylcellulose (CMC)); 71 % of control (dose: 0.5 mg/kg/injection, vehicle: carboxymethylcellulose (CMC)). The T/C (dose: 0.63 mg/kg/injection, vehicle: carboxymethylcellulose (CMC)) is 35 % of control; the T/C (dose: 1.0 mg/kg/injection, vehicle: carboxymethylcellulose (CMC)) was 44 % of control; the T/C (dose: 2.5 mg/kg/injection, vehicle: methylcellulose (MC)) was 21 % of control; the T/C (dose: 10.0 micrograms/kg/injection, vehicle: carboxymethylcellulose (CMC)) is 111 % of control; the T/C (dose: 40.0 micrograms/kg/injection, vehicle: carboxymethylcellulose (CMC)) is 98 % of control; the T/C (dose: 80.0 micrograms/kg/injection, vehicle: carboxymethylcellulose (CMC)) is 115 % of control.
